Test results reported in PMC6797515, “Effects of Bakuchiol on chondrocyte proliferation via the PI3K‐Akt and ERK1/2 pathways mediated by the estrogen receptor for promotion of the regeneration of knee articular cartilage defects” (Cell Proliferation, 2019).

Tests used:
[1] = tested on: knee articular cartilage defect; assay: Rat knee articular cartilage defect model, histological evaluation; type: in vivo, Sprague‐Dawley (SD) rats; details: Matrigel with bakuchiol 100 µmol/L implanted locally
Description: (§1) Animal experiments were conducted in accordance with protocols approved by the Chongqing University Animal Care and Use Committee. For the cartilage injury model, a 0.5‐mm‐deep thickness defect was created through the articular cartilage and subchondral bone of the patellar groove of Sprague‐Dawley (SD) rats (200‐250 g) using a micro‐electrical drill. Matrigel mixed with bakuchiol (100 µmol/L) was implanted locally to fill the cartilage defect. Articular cartilage samples were harvested after 1 and 2 weeks post‐implantation for macroscopic and histological evaluation, with analysis by micro‐CT. The harvested samples were embedded in paraffin, sectioned for 10 μm thickness and then stained with haematoxylin and eosin (H&E), Safranin‐O green and Alcian blue. The sections were scored histologically in accordance with previous studies.9, 17, 18 The relative area of each defect (Figure 6: area within the dashed line) in the different groups was measured using Image J. The relative content of cartilage matrix was ascertained from the degree of Safranin staining (Red area) and GAG content by Alcian blue staining (Positive blue area). All morphological measurements were performed using Image J. The mean histological scores for each group were statistically analysed, with t tests performed between the BAK‐treated group and control. In addition, the histological immunofluorescent staining for Ki67, p‐Akt, and p‐ERK was performed to verify the in vivo mechanisms of BAK on cell proliferation.

[2] = tested on: CDK1; assay: Western blotting for CDK1 protein; type: cell-based, rat; details: for CDK1 protein levels in chondrocytes: inhibitor 1 µmol/L added to 10 µmol/L BAK
Description: (§2) Western blotting analysis was performed as described previously. After separation using SDS‐PAGE then transfer to PVDF membranes, the target proteins were detected after incubating with primary antibodies for CDK1 (Abcam: ab18, 1:1000), E2F1 (Abcam: ab179445, 1:1000), phosphorylated Akt (CST: 9271, 1:1000), Akt (CST: 9272, 1:1000), phosphorylated ERK1/2 (Abcam: ab201015, 1:1000), ERK1/2 (Abcam: ab36991, 1:1000) and ERα (Santa Cruz: sc‐8005, 1:200). The membranes were then incubated with the corresponding secondary antibody at 37°C for 1 hour Finally, the immunoreactive bands were developed using SuperSignal West Femto Maximum sensitivity substrate (Thermo Fisher Scientific), and the images analysed using Quantity One Software (Bio‐Rad). The PI3K‐Akt and ERK signalling pathways were involved in the regulation of cell proliferation by BAK. Two methods of analysis were conducted to verify this. Firstly, the cells were treated with BAK or BAK plus the Akt or ERK inhibitors PI‐103 and SCH772984, respectively. Following culture of the cells, Western blotting was used to ascertain if Akt or ERK1/2 were phosphorylated and to verify the association between BAK and the activation of the Akt and ERK1/2 pathways. Secondly, ERα siRNA (ERα si‐R) was used to knockdown estrogen receptor in the target cells, which were then further cultured for 48 hours with BAK. Meanwhile, the non‐treatment group was used as the control. Finally, the protein expression levels of CDK1 and phosphorylated and total Akt (p/t‐Akt) were detected using Western blotting so as to confirm the involvement of the ERα/PI3K‐Akt/ERK axis signalling pathways in cell proliferation by BAK stimulation.

[3] = tested on: E2F1; assay: qRT-PCR gene expression of E2F1; type: cell-based, rat; details: 10 µmol/L, 48 hours
Description: (§3) Cells were harvested using Trizol reagent (Invitrogen), followed by RNA isolation. Each sample was reverse transcribed to cDNA using a RevertAid First Strand cDNA Synthesis Kit (Thermo Fisher Scientific). The reverse transcription product was then used as a template to perform real‐time polymerase chain reaction (PCR) on a StepOne Plus thermal cycler (Applied Biosystems) using PowerUp™ SYBR™ Green Master Mix (Applied Biosystems), following the manufacturer's guidelines. The primers for CDK1 (F: 5′‐[…]‐3′; R: 5′‐[…]‐3′), E2F1 (F: 5′‐[…]‐3′; 5′‐[…]‐3′), MKI67 (F: 5′‐[…]‐3′; R: 5′‐[…]‐3′) were synthesized by Invitrogen. The final data were analysed by the 2^−ΔΔ ^C ^t method.

[4] = tested on: Ki67, p‐ERK and p‐Akt; assay: Immunofluorescent staining of Ki67, p-Akt, p-ERK at the defect site; type: in vivo, Sprague‐Dawley (SD) rats; details: 1 and 2 weeks post-injury
Description: as §1, with “In addition, the histological immunofluorescent staining for Ki67, p‐Akt, and p‐ERK was performed to verify the in vivo mechanisms of BAK on cell proliferation.” left out

[5] = tested on: CDK1; assay: qRT-PCR gene expression of CDK1; type: cell-based, rat; details: 10 µmol/L, 48 hours
Description: as §3

[6] = tested on: rat chondrocytes; assay: CCK8 cell viability / cytotoxicity assay; type: cell-based
Description: Rat chondrocytes were isolated using a method adapted from a previous study.9 Briefly, articular cartilage was retrieved from the knees of healthy Sprague-Dawley rats (male, n = 5, weight: 150 g). The cartilage was minced, and pieces digested with 2 mg/mL of collagenase type II (Gibco) for 2 hours. After removal of undigested tissue, the cells were cultured in DMEM/F12 (1:1) supplemented with 10% FBS. Passage 2-3 (P2-3) cells were used in the experimental studies. The bakuchiol was purchased from Selleck ([…]). Animal experiment protocol was reviewed and approved by the Institutional Review Board (IRB) of Chongqing University. Cell viability in response to BAK was evaluated using a cell counting kit-8 (CCK8) assay which was also utilized to assess cell viability. Cells were seeded at a density of 1 × 10^4 cells/well in a 24-well plate and the cytotoxicity of BAK tested using concentrations of 1 to 100 μmol/L for 3 days. The cells were then treated with 10 μmol/L BAK for 7 days. The cells were then washed with PBS and incubated in serum-free medium containing 10% CCK8 reagent for 2-3 hours at 37°C in an atmosphere containing 5% CO2. Aliquots were pipetted into a 96-well plate and absorbance at 490 nm measured using a plate reader (Bio-Rad).

[7] = tested on: estrogen receptor; parameters: method as in earlier work; details: ref 11 (Lim et al); cited from earlier work
[8] = tested on: ERK1/2; assay: Western blotting for phosphorylated/total ERK1/2; type: cell-based, rat
Description: as §2, with “Following culture of the cells, Western blotting was used to ascertain if Akt or ERK1/2 were phosphorylated and to verify the association between BAK and the activation of the Akt and ERK1/2 pathways. Secondly, ERα siRNA (ERα si‐R) was used to knockdown estrogen receptor in the target cells, which were then further cultured for 48 hours with BAK. Meanwhile, the non‐treatment group was used as the control.” left out

[9] = tested on: E2F1; assay: Western blotting for E2F1 protein; type: cell-based, rat; details: BAK 1 to 10 µmol/L for 3 d
Description: Western blotting analysis was performed as described previously. After separation using SDS‐PAGE then transfer to PVDF membranes, the target proteins were detected after incubating with primary antibodies for CDK1 (Abcam: ab18, 1:1000), E2F1 (Abcam: ab179445, 1:1000), phosphorylated Akt (CST: 9271, 1:1000), Akt (CST: 9272, 1:1000), phosphorylated ERK1/2 (Abcam: ab201015, 1:1000), ERK1/2 (Abcam: ab36991, 1:1000) and ERα (Santa Cruz: sc‐8005, 1:200). The membranes were then incubated with the corresponding secondary antibody at 37°C for 1 hour Finally, the immunoreactive bands were developed using SuperSignal West Femto Maximum sensitivity substrate (Thermo Fisher Scientific), and the images analysed using Quantity One Software (Bio‐Rad).

[10] = tested on: MKI67; assay: qRT-PCR gene expression of MKI67; type: cell-based, rat; details: 10 µmol/L, 48 hours
Description: as §3

[11] = tested on: MKI67; assay: Immunofluorescent staining of MKI67 in chondrocytes; type: cell-based, rat; details: 10 µmol/L, relative to control
[12] = tested on: chondrocytes; assay: EdU DNA proliferation assay; type: cell-based, rat; details: 10 and 20 µmol/L, 24 and 48 hours
Description: Chondrocyte proliferation was quantified using an ethynyl deoxyuridine (EdU) DNA in vitro proliferation detection kit (Guangzhou RiboBio) using flow cytometry, in accordance with the manufacturer's instructions.14 Images of cells were captured by light with microscopy using Image‐Pro Plus 6.0 software (Media Cybernetics). The number of EdU‐labelled cells was calculated from fields randomly selected in each well. Numbers of cells in each phase of the cell cycle were calculated using a BD FACS Calibur Flow Cytometer at a 488 nm excitation wavelength.

[13] = tested on: Akt; assay: Western blotting for phosphorylated/total Akt; type: cell-based, rat
Description: as §2, with “Following culture of the cells, Western blotting was used to ascertain if Akt or ERK1/2 were phosphorylated and to verify the association between BAK and the activation of the Akt and ERK1/2 pathways. Secondly, ERα siRNA (ERα si‐R) was used to knockdown estrogen receptor in the target cells, which were then further cultured for 48 hours with BAK. Meanwhile, the non‐treatment group was used as the control.” left out

C=C[C@@](C)(/C=C/c1ccc(O)cc1)CCC=C(C)C [BAK, bakuchiol]
histological score of the defects ([1]; 1 week): 3.60 ± 0.54 | histological score of the defects ([1]; 2 weeks): 5.40 ± 0.55 | content of GAG vs control ([1]; Alcian blue): clearly different | CDK1 protein synthesis ([2]; 10 µmol/L BAK, Figure 4): significantly stimulated CDK1 protein synthesis | CDK1 protein synthesis ([2]; BAK 1 to 10 µmol/L for 3 d): stimulated CDK1 protein synthesis | mRNA level of E2F1 [3]: significantly up‐regulated | expression of Ki67, p-ERK and p-Akt in vivo [4]: promoted the expression | mRNA level of CDK1 [5]: significantly up‐regulated | cell viability vs control ([6]; 10 µmol/L, 7 days of culture): promoted cell viability | toxicity in the cells ([6]; 100 µmol/L): clear toxicity | cytotoxic effects on chondrocytes ([6]; 1 to 100 µmol/L, after 24 hours): no cytotoxic effects | proliferation of chondrocytes vs control ([6]; 5, 10 and 20 µmol/L, control 0.1% DMSO): increased proliferation significantly | EC50 ([6]; Rattus norvegicus, Chondrocyte, CCK8, chondrocytes, 24 h, Figure 1A, read-out: EC50 of BAK): 8.9 µM | IC50 ([6]; Rattus norvegicus, Chondrocyte, CCK8, chondrocytes, Figure S1, read-out: IC50 (toxicity in the cells)): 48.5 µM | BAK concentration in the medium with significant cytotoxicity ([6]; chondrocytes): > 20 µmol/L | estrogen receptor-binding affinity [7]: high estrogen receptor‐binding affinity | ratio of phosphorylated/total ERK1/2 (p/t-ERK1/2) ([8]; 10 µmol/L BAK): improved the ratios | E2F1 protein (translation level) [9]: up‐regulated E2F1 at the translation level | mRNA level of MKI67 [10]: significantly up‐regulated | MKI67 protein synthesis (immunofluorescent staining) [11]: clearly promoted MKI67 protein synthesis | cell proliferation (EdU staining) [12]: significantly promoted cell proliferation | ratio of phosphorylated/total Akt (p/t-Akt) ([13]; 10 µmol/L BAK): improved the ratios

Oc1cccc(-c2nc(N3CCOCC3)c3oc4ncccc4c3n2)c1 [PI‐103]
CDK1 protein levels in chondrocytes [2]: reduced | p/t-Akt ratio in chondrocytes ([13]; 1 µmol/L PI-103 added to 10 µmol/L BAK): reduced

O=C(Nc1ccc2[nH]nc(-c3ccncc3)c2c1)[C@@H]1CCN(CC(=O)N2CCN(c3ccc(-c4ncccn4)cc3)CC2)C1 [SCH772984]
CDK1 protein levels in chondrocytes [2]: reduced | p/t-ERK1/2 ratio in chondrocytes ([8]; 1 µmol/L SCH772984 added to 10 µmol/L BAK): reduced
